The results in this text go back to ChEMBL document CHEMBL1140846, “Convenient QSAR model for predicting the complexation of structurally diverse compounds with beta-cyclodextrins” (Bioorg Med Chem, 2009).

The data set in a line: Binding affinity to beta cyclodextrin.

`COc1cc(NS(=O)(=O)c2ccc(N)cc2)nc(OC)n1` [SULFADIMETHOXINE]: the “log Ks” value was 2.26.
Next, `Cc1ccnc(NS(=O)(=O)c2ccc(N)cc2)n1` [SULFAMERAZINE]: 1.97.
On to `COc1cc(NS(=O)(=O)c2ccc(N)cc2)nc(C)n1` [SULFAMETOMIDINE], for which the “log Ks” value is recorded as 2.33.
`COc1cc(NS(=O)(=O)c2ccc(N)cc2)ncn1` [SULFAMONOMETHOXINE]: the “log Ks” value was 2.48.
On to `Nc1ccc(S(=O)(=O)Nc2ccnn2-c2ccccc2)cc1` [SULFAPHENAZOLE], for which the “log Ks” value stood at 2.35.
The value for `Nc1ccc(S(=O)(=O)Nc2ccccn2)cc1` [SULFAPYRIDINE] was 2.7; that for `Cc1cc(NS(=O)(=O)c2ccc(N)cc2)nc(C)n1` [SULFISOMIDINE] was 2.1.
Take `Cc1noc(NS(=O)(=O)c2ccc(N)cc2)c1C` [SULFISOXAZOLE]: the “log Ks” value came out at 2.32.
In the case of `CC(C)(C)O` [TERT-BUTANOL], the “log Ks” value was 1.68.
`C1CCOC1` [TETRAHYDROFURAN]: the “log Ks” value worked out at 1.47.
Turning to `CCCC(C)C1(CC)C(=O)NC(=S)NC1=O` (stereo not drawn) [THIOPENTAL], the “log Ks” value was found to be 3.28.
Next, `Cc1cccc(N(C)C(=S)Oc2ccc3ccccc3c2)c1` [TOLNAFTATE]: 3.83; `CC1(C)O[C@@H]2C[C@H]3[C@@H]4CCC5=CC(=O)C=C[C@]5(C)[C@@]4(F)[C@@H](O)C[C@]3(C)[C@]2(C(=O)CO)O1` [TRIAMCINOLONE ACETONIDE]: 3.51; `C[C@]12C=CC(=O)C=C1CC[C@H]1[C@@H]3C[C@@H](O)[C@](O)(C(=O)CO)[C@@]3(C)C[C@H](O)[C@@]12F` [TRIAMCINOLONE]: 3.37.
Regarding `CCCOC/C(=N\c1ccc(Cl)cc1C(F)(F)F)n1ccnc1` [TRIFLUMIZOLE], the “log Ks” value is listed as 2.66.
For the molecule `C[C@H](CCC(=O)O)[C@H]1CC[C@H]2[C@@H]3[C@@H](O)C[C@@H]4C[C@H](O)CC[C@]4(C)[C@H]3CC[C@]12C` [URSODIOL], the “log Ks” value is recorded as 4.51.
For the molecule `c1ccc2c(c1)Cc1ccccc1O2` [XANTHENE], the “log Ks” value was determined as 2.71.
Take `Cc1ccc(O)cc1` [p-CRESOL]: the “log Ks” value is recorded as 2.4.
